Test results reported in patent EP0926242A1, “GLIOTOXIN DERIVATIVES AND ANTICANCER AGENT COMPRISING THE SAME” (priority 1996, dated 1998).
In brackets after ≈: the same amount, converted by molar mass. Read-outs that look alike come from different tables or passages of the source.

How the values were obtained:
[1] = tested on: Human carcinoma of the colon cell strain HCT-116; assay: Tertiary culture using test human cancer, killed cells by MTT method; assay type: cell-based; conditions: incubated 3 days
Protocol: Tertiary cultures were carried out using a human carcinoma of the colon tissue in stage 2b. The tertiary cultures were carried out according to the reported method (Int.J.Cancer Res., 82, 607-612 (1991), Gan to Kagakuryoho, 18, 239-243 (1991), Gan to Kagakuryoho, 19, 743-748 (1992)). The extracted tissue of carninoma of the colon was cut into square pieces having a side of about 2 mm, and incubated in a RPMI- 1640 medium containing 10 % fetal calf serum under 5 % CO2 at 37 °C for 3 days. Existing anticancer agents or acetylgliotoxin were diluted and added, and further incubated for 3 days. Then, the rate of killed cells was determined by the MTT method. The tertiary cultures using the test human cancer were carried out as follows: Human carcinoma of the colon cell strain HCT-116 was transplanted into the subcutaneous tissue of a nude mouse (Balb nu/nu) to induce tumor. The cancer tissue was extracted from the tumor-induced portion, and cut into square pieces having a side of 2 mm. The evaluation of the existing anticancer agents and acetylyliotoxin was earried out according to the aforementioned method.

[2] = tested on: mouse carcinoma of the colon cells colon 26; assay: Anticancer effect in vivo against colon 26 (Example 9 A); conditions: CDFI mice
Protocol: (§1) • (A) Evaluationin vivo using mouse carcinoma of the colon cells colon 26 CDFI mice (female : 4 weks age) were bought, and colon 26 subcultured in the subcutaneous tissue of the mouse was taken out, and cut into small pieces by a scissors. The cancer cells were transplanted into subcutaneous tisue of CDFI mice by a trucker. The day was assigned 0 day, and the tumor was measured by a slide caliper after 7 days. The volume of the tumor was calculated, and divided into groups (each group : n = 4). The text compound was dissolved in dimethylsulfoxide, and diluted with 5 % Tween 80- saline aqueous solution. […] The administration was carried out after 7 days, after 11 days and after 15 days or after 7 days and after 8 days from the transplantation at a rate of once per one day. 21st day from the transplantation, the volume of tumor was measured and the volume of tumor and the inhibition against tumor multiplication rate (I.R.) were calculated. The volume of tumor was calculated by the following formula. (Tumore Volume [mm)^3 (]= Minor Axis [mm])^2 × Major Axis [mm] × (1/2) [formula] • The inhibition against tumor multiplication rate (I.R.) was calculated by the following formula. I.R. [%] = {1- (Average Tumor Volume of Administration Group / Average Tumor Volume of Control Group)) × 100 [formula] • (B) Evaluation in vivo using human carcinoma of the colon cells HCT-116 Balb/c nu/nu mice (female : 5 weks age) were bought, and HCT-116 (Dainippon Seiyaku) subcultured in the subcutaneous tissue of the mouse was taken out, and cut into small pieces by a scissors. The cancer cells were transplanted into subcutaneous tissue of […] mice by a trucker. The day was assigned 0 day, and the tumor was measured by a slide caliper after 7 days. The volume of the tumor was calculated, and divided into groups (each group : n = 2). The text compound was dissolved in dimethylsulfoxide, and diluted with 5 % Tween 80- saline aqueous solution. […] The administration was carried out after 7 days, after 11 days and after 15 days from the transplantation at a rate of once per one day. 21st day from the transplantation, the volume of tumor was measured and the volume of tumor and the inhibition against tumor multiplication rate (I.R.) were calculated by the above formulas.

[3] = tested on: human carcinoma of the colon cells HCT-116; assay: Anticancer effect in vivo against HCT 116 (Example 9 B); parameters: species or system mouse; conditions: 5 [mg/kg]×3 (i.p.), 7,11,15th days, Balb/c nu/nu mice
Protocol: as §1

[4] = tested on: mouse leukemia cells P388; assay: Evaluation of cytotoxity of synthesized derivatives by the MTT method (Example 8); assay type: cell-based; conditions: for IC50: Mus musculus, read-out: P388 IC50[ng/mL]
Protocol: (§2) Antitumor activity of the synthesized derivatives against various cancer cells was measured by the MTT method. The cancer cells used were mouse carcinoma of the colon cells colon 26 (Gan Kenkyu-sho, Gan Kenkyu-kai) and mouse leukemia cells P388 (Dai-Nippon Seiyaku), and the culture medium contained 10 % fetal calf serum. Each cells were placed in each well of 96 well microplate n an amount of […]/50 µL/well and 50 µL of a test compound aqueous solution in each concentration was added. After incubating at 37 °C for 3 days, the number of survival cells was measured by the MTT method, and a dose-reaction curve was made. Thereby, the concentration of each test compound inhibiting multiplication at a rate of 50 % (IC50) was calculated.

[5] = tested on: mouse carcinoma of the colon cells colon 26; assay: as above; assay type: cell-based; conditions: for IC50: Mus musculus
Protocol: as §2

[6] = 10 [mg/kg]×2 (i.v.), 7, 14th days
[7] = 2.5[mg/kg]×3 (i.p.), 7,11,15th days
[8] = 5 [mg/kg]×3 (i.p.), 7,11,15th days
[9] = 72 h, colon 26, 3 days, MTT, read-out: colon 26 IC 50
[10] = 10 [mg/kg]×2 (i.p.), 7,8th days

`O=c1[nH]cc(F)c(=O)[nH]1` [5-F U, 5-Fluorouracil] was tested, and the “I. R. (%)” value ([1]; conc. 500 ug/mL) was 38%.

In the case of `COc1cccc2c1C(=O)c1c(O)c3c(c(O)c1C2=O)C[C@@](O)(C(=O)CO)C[C@@H]3O[C@H]1C[C@H](N)[C@H](O)[C@H](C)O1` [Adriamycin, reference compound], the “I. R. (%)” value ([1]; conc. 6 ug/mL) is reported as 0%, the “I.R. (21st day)” value [2, 6] is reported as 38.9% and the I.R.Max [2, 6] is reported as 38.9%.

In the case of `[NH2][Pt]([NH2])([Cl])[Cl]` [CDDP, Cisplatin, reference compound], the “I. R. (%)” value ([1]; conc. 25 ug/mL) is reported as 6%, the “I.R. (21st day)” value [3] is reported as 15.6% and the I.R.Max [3] is reported as 47.5%.

In the case of `CN1C(=O)[C@]23Cc4ccccc4N2C(=O)[C@]1(CO)SS3` [Compound of Example 3, (3S, 10aR)―2,3-dihydro―3―(hydroxymethyl)―2― methyl―10H―3,10a―epidithiopyrazino[1,2―a]indole― 1,4―dione], the “I.R. (21st day)” value [2, 7] is reported as 35.2%, the I.R.Max [2, 7] is reported as 35.3% and the “I.R. (21st day)” value [2, 8] is reported as 43.7%. The I.R.Max [2, 8] was 51.6%, the IC50 ([4]; 72 h, P388, 3 days, MTT) was 3.2 ng/mL (≈ 0.0104 µM) and the IC50 [5, 9] was 58 ng/mL (≈ 0.188 µM).

With `CN1C(=O)[C@]23Cc4cccc(O)c4N2C(=O)[C@]1(CO)SS3` [Compound of Example 4, (3S, 10aR)―2,3―dihydro―6―hydroxy―3―(hydroxymethyl)― 2―methyl―10H―3,10a―epidithiopyrazino[1,2―a]indole― 1,4―dione] the “I.R. (21st day)” value [2, 7] was 40.1%, the I.R.Max [2, 7] was 54.5% and the “I.R. (21st day)” value [2, 8] was 52.9%. The I.R.Max [2, 8] was 58.9%, the “I.R. (21st day)” value [2, 10] was 43.5% and the I.R.Max [2, 10] was 79.8%. The “I.R. (21st day)” value [3] was 63.8%, the I.R.Max [3] was 66.5% and the IC50 ([4]; P388, 72 h) was 21 ng/mL (≈ 0.0647 µM). The IC50 ([5]; Colon 26, 72 h, read-out: colon 26 IC 50 [ng/mL]) was 110 ng/mL (≈ 0.339 µM).

`CC(=O)Oc1cccc2c1N1C(=O)[C@]3(CO)SS[C@]1(C2)C(=O)N3C` [Compound of Example 5, (3 S, 10aR)―6―acetoxy―2,3―dihydro―3―(hydroxymethyl)― 2―methyl―10H―3,10a―epidithiopyrazino[1,2―a]indole―1, 4―dione] showed an IC50 ([4]; 72 h, P388, 3 days, MTT) of 13 ng/mL (≈ 0.0355 µM) and an IC50 [5, 9] of 74 ng/mL (≈ 0.202 µM).

In the case of `CN1C(=O)[C@]23Cc4cccc(OCC#N)c4N2C(=O)[C@]1(CO)SS3` [Compound of Example 6, (3S, 10aR)―6―(cyanomethoxy)―2,3―dihydro―3― (hydroxymethyl)―2―methyl―10H-3,10a―a― epidithiopyrazino[1,2―a]indole―1,4―dione], the “P388 IC50[ng/mL]” value ([4]; P388, 3 days, MTT) is reported as 5.8 ng/mL and the “colon 26 IC 50” value ([5]; colon 26, 3 days, MTT) is reported as 0.07 µg/mL.

In the case of `COC(=O)COc1cccc2c1N1C(=O)[C@]3(CO)SS[C@]1(C2)C(=O)N3C` [Compound of Example 7, (3S, 10aR)―2,3―dihydro―3― (hydroxymethyl)―6―[(methoxycarbonyl)methyloxy]―2― methyl―10H―3,10a―epidiopyrazino[1,2―a]indole―1,4― dione], the “colon 26 IC 50” value ([5]; colon 26, 3 days, MTT) is reported as 0.082 µg/mL.

`CN1C(=O)[C@]23CC4=CC=C[C@H](O)[C@H]4N2C(=O)[C@@]1(CO)SS3` [Gliotoxin, gliotoxin] was tested, and the “I. R. (%)” value ([1]; conc. 12.5 ug/mL) was 28% and the “I. R. (%)” value ([1]; conc. 25 ug/mL) was 66%.

For `CO[C@@]12[C@H](COC(N)=O)C3=C(C(=O)C(C)=C(N)C3=O)N1C[C@@H]1N[C@@H]12` [M M C, Mitomycin C], the “I. R. (%)” value ([1]; conc. 15 ug/mL) was 34%.

For `CC(=O)O[C@H]1C(=O)[C@@]2(C)[C@H]([C@H](OC(=O)c3ccccc3)[C@]3(O)C[C@H](OC(=O)[C@H](O)[C@@H](NC(=O)c4ccccc4)c4ccccc4)C(C)=C1C3(C)C)[C@]1(OC(C)=O)CO[C@@H]1C[C@@H]2O` [T A X O L, Taxol], the “I. R. (%)” value ([1]; conc. 100 ug/mL) was 19%.

`CC[C@]1(O)C[C@@H]2CN(CCc3c([nH]c4ccccc34)[C@@](C(=O)OC)(c3cc4c(cc3OC)N(C)[C@H]3[C@@](O)(C(=O)OC)[C@H](OC(C)=O)[C@]5(CC)C=CCN6CC[C@]43[C@@H]65)C2)C1` [Vinblastine] was tested, and the “I. R. (%)” value ([1]; conc. 100 ug/mL) was 20%.
